This is an account of results in patent US7268231B2, “1,5-Naphthyridine azolinone” (Hoffmann-La Roche Inc., priority 2004, dated 2007).

In general, Ki refers to a dissociation constant, usually derived from enzyme kinetics or from competition with a known ligand.

Structures are written as SMILES.

For this experiment, the target named is T1, recombinant human CDK1/Cyclin B complex (Homo sapiens, UniProt P06493).
T1 construct: made in house; host or cells: High Five insect cells (baculovirus) for CDK1/GST-cyclin B; M15 E. coli for the Rb substrate
T1 sequence (P06493 whole entry): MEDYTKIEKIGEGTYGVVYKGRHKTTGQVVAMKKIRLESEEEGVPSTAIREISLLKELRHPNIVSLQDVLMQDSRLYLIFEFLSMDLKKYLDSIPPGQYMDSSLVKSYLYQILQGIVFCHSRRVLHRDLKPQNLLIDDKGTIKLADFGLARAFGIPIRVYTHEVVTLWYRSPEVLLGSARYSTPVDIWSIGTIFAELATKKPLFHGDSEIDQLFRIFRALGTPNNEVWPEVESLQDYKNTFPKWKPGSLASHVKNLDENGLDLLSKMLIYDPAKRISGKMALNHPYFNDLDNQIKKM
T1 sequence (P14635 whole entry partner): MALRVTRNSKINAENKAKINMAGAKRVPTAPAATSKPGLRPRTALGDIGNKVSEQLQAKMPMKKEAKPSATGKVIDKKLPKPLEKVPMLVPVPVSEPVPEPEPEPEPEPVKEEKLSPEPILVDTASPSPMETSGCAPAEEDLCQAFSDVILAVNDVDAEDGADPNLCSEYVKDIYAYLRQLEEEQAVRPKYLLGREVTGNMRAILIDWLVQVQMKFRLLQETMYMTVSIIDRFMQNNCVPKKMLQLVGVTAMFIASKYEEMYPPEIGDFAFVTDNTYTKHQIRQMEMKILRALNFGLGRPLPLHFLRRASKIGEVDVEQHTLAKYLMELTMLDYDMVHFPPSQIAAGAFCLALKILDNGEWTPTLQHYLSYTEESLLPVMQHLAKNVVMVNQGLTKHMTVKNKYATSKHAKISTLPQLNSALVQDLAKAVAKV
The experiment can be described thus: CDK1/Cyclin B kinase assay (FlashPlate or HTRF). The experiment is classed as biochemical. The settings on record: Rb protein substrate, Ki=IC50/(1+[S]/Km). The method, then:
To determine inhibition of CDK1 activity, either FlashPlate™ (NEN™-Life Science Products) assay or HTRF assay was performed. Both types of kinase assays were carried out using recombinant human CDK1/Cyclin B complex. GST-cyclinB (GST-cycB) and CDK1 cDNA clones in baculovirus vectors were provided by Dr. W. Harper at the Baylor College of Medicine, Houston, Tex. Proteins were co-expressed in High Five™ insect cells and the complex was purified on glutathione Sepharose resin (Pharmacia, Piscataway, N.J.) as previously described (Harper, J. W. et al. Cell 1993, 75, 805-816). A 6×-Histidine tagged truncated form of retinoblastoma (Rb) protein (amino acid 386-928) was used as the substrate for the CDK1/Cyclin B assay (the expression plasmid was provided by Dr. Veronica Sullivan, Department of Molecular Virology, Roche Research Centre, Welwyn Garden City, United Kingdom). The Rb protein is a natural substrate for phosphorylation by CDK1 (see Herwig and Strauss Eur. J. Biochem. Vol. 246 (1997) pp. 581-601 and the references cited therein). The expression of the 62Kd protein was under the control of an IPTG inducible promoter in an M15 E. coli strain. Cells were lysed by sonication and purification was carried out by binding lysates at pH 8.0 to a Ni-chelated agarose column pretreated with 1 mM imidazole. The resin was then washed several times with incrementally decreasing pH buffers to pH 6.0, and eluted with 500 mM imidazole. Eluted protein was dialysed against 20 mM HEPES pH 7.5, 30% glycerol, 200 mM NaCl, and 1 mM DTT. Purified Rb fusion protein stocks were quantitated for protein concentration, aliquoted, and stored at −70° C.
For the FlashPlate kinase assay, 96-well FlashPlates were coated with Rb protein at 10 μg/ml, using 100 μl per well. Plates were incubated at 4° C. overnight or at room temperature for 3 hours on a shaker. To control for nonspecific phosphorylation, one row of wells was coated with 100 μl/well coating buffer (20 mM HEPES, 0.2 M NaCl). Plates were then washed twice with wash buffer (0.01% Tween 20 in phosphate-buffered saline). Compounds to be tested (“test compounds”) were added to the wells at 5× final concentration. Reactions were initiated by immediate addition of 40 μl reaction mix (25 mM HEPES, 20 mM MgCl2, 0.002% Tween 20, 2 mM DTT, 1 μM ATP, 4 nM 33P-ATP) and a sufficient amount of enzyme to give counts that were at least 10-fold above background. Plates were incubated at room temperature on a shaker for 30 minutes. Plates were washed four times with the wash buffer, sealed, and counted on the TopCount scintillation counter (Packard Instrument Co., Downers Grove, Ill.]. The percent inhibition of Rb phosphorylation, which is a measure of the inhibition of CDK activity, was determined according to the following formula:
[formula] where “test compound” refers to the average counts per minute of the test duplicates, “nonspecific” refers to the average counts per minute when no CDK1/Cyclin B, etc., was added, and “total” refers to the average counts per minute when no compound was added. […] The value of the inhibitor constant Ki is calculated by the following: Ki=IC50/(1+[S]/Km), where [S] is the ATP concentration and Km is Michaelis constant.
The Homogeneous Time Resolved Fluorescence (HTRF) kinase assay was carried out in 96-well polypropylene plates (BD Biosciences, Bedford, Mass.). […]
For the molecule `O=C1N=C(NCc2ccc(C(F)(F)F)cc2C(F)(F)F)N/C1=C\c1ccc2ncccc2n1` [Example 20, 2-(2,4-Bis-trifluoromethyl-benzylamino)-5-[1,5]naphthyridin-2-ylmethylene-1,5-dihydro-imidazol-4-one], the Ki stood at 0.735 µM.
For `Cc1cccc(Cl)c1CNC1=NC(=O)/C(=C/c2ccc3ncccc3n2)S1` [Example 12, 2-(2-Chloro-6-methyl-benzylamino)-5-[1,5]naphthyridin-2-ylmethylene-thiazol-4-one], the inhibitory constant (Ki) amounted to 0.0317 µM.
`NC1=NC(=O)/C(=C/c2ccc3ncccc3n2)S1` [Example 4, 2-Amino-5-[1,5]naphthyridin-2-ylmethylene-thiazol-4-one]: the Ki is 4.67 µM.
For the molecule `CC(=O)NC1=NC(=O)/C(=C/c2ccc3ncccc3n2)N1` [Example 16, N-(5-[1,5]Naphthyridin-2-ylmethylene-4-oxo-4,5-dihydro-1H-imidazol-2-yl)-acetamide], the Ki was found to be 1.18 µM.
As for `O=C1N=C(NCc2ccc(F)c(Cl)c2)S/C1=C\c1ccc2ncccc2n1` [Example 8, 2-(3-Chloro-4-fluoro-benzylamino)-5-[1,5]naphthyridin-2-ylmethylene-thiazol-4-one], the Ki was 0.279 µM.
